Results reported in patent US20130030000A1, “PHARMACEUTICAL COMPOSITIONS FOR THE TREATMENT OF PAIN AND OTHER INDICATIONS” (priority 2010, published 2013).
Counter-ions that a name gives are not always drawn.

target: T1, Human FAAH (Homo sapiens, UniProt O00519); experiment: Human FAAH lysate assay (CHO cell lysate expressing FAAH, AAMCA or 3H-anandamide hydrolysis); format: biochemical; conditions: B series; read-out: Human FAAH lysate assay: IC50
T1 construct: The full length FAAH was subcloned into the mammalian expression vector, peDEF.neo
T1 sequence (O00519 1-579): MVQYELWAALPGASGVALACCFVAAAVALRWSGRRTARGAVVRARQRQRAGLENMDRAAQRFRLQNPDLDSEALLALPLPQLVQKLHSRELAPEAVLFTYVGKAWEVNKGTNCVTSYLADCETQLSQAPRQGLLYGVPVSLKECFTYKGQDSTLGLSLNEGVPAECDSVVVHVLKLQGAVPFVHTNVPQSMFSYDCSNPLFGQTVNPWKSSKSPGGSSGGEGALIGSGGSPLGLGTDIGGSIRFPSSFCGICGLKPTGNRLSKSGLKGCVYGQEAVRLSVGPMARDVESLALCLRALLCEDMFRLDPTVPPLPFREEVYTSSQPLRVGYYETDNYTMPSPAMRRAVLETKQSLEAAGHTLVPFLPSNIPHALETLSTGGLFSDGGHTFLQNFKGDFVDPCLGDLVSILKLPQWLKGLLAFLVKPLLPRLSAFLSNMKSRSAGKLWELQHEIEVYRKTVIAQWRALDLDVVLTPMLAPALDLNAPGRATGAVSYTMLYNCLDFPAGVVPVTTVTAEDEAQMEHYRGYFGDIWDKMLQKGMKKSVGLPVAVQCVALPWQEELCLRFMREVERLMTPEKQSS
Source text: To assist in assay development stable cell lines for human, murine and rat full length FAAH were developed. […] The full length FAAH was subcloned into the mammalian expression vector, peDEF.neo, using XbaI and EcoRI restriction sites and used for stable cell line generation.
CHO cells expressing FAAH were used to prepare either crude cell lysate or microsome fractions. To harvest cells, tissue culture media was decanted, the monolayer washed three times with Ca^++Mg^++ free PBS and cells recovered after […] in enzyme free dissociation media (Millipore Corp, Billerica, Mass.). Cells were collected by centrifuging at 2000 rpm for 15 min. and the cell pellet re-suspended with 50 mM HEPES (pH 7.4) containing 1 mM EDTA and the protease inhibitors aprotinin (1 mg/ml) and leupeptin (100 μM). The suspension was sonicated at 4° C. and the cell lysate recovered after centrifuging at 12,000×g (14,600 rpm, SS34 rotor) for 20 min at 4° C. to form a crude pellet of cell debris, nuclei, peroxisomes, lysosomes, and mitochondria; the supernatant or cell lysate was used for FAAH enzyme assay. In some cases, microsomes fractions enriched in FAAH were prepared by centrifuging the cell lysate further at 27,000 rpm (100,000×g) in SW28 rotor for 50 minutes at 4° C. The pellet containing FAAH-enriched microsomes was re-suspend in 50 mM HEPES, (pH 7,4) 1 mM EDTA, and any remaining DNA sheared by passage of material through a 23 gauge needle and aliquots of enzyme were store at −80° C. prior to use.
Assays are performed on either cell lysate or microsome fractions prepared as described or in whole cell format employing either the fluorescent substrate AAMCA (Cayman chemical, Ann Arbor, Mich.,) or ^3H-anandamide ([ETHANOLAMINE-1-3H] American Radiolabeled Chemicals; 1 mCi/ml). The cell lysate or microsome assay is performed in Costar black wall, clear bottom plates by adding FAAH_CHO (whole cell, cell lysate or microsome) in assay buffer (50 mM Phosphate, pH 8.0, 1 mM EDTA, 200 mM KCl, 0.2% glycerol, 0.1% fatty acid free BSA) to each well, followed by either DMSO or compound and allowed to incubate at 22-25° C. for fifteen minutes. AAMCA substrate was used to achieve a final concentration of 1 μM and reaction allowed to proceed at room temperature for 1-3 hours. […] Whole cell assay is conducted with cells harvested after rinsing tissue culture flasks three times with Ca^++Mg^++ free PBS, incubating for 10 mm in Enzyme free dissociation media and centrifuging for 5 minutes at 1,000 rpm in table top centrifuge. Cells are resuspended in assay buffer at desired cell number in (4×10^4 cells/assay in 96-well format; 1×10^4 cells/assay in 384-well format) and assayed as described.
Alternatively, assays are performed using anandamide [ethanolamine 1-^3H] (specific activity of 10 Ci/mmol) diluted with cold anandamide to achieve a final assay concentration of 1 μM anandamide (˜50,000 cpm). Enzyme (CHO cell lysate, brain or liver homogenate) is incubated in assay buffer (50 mM Phosphate, pH 8.0, 1 mM EDTA, 200 mM KCl, 0.2% glycerol, 0.1% fatty acid free BSA) with inhibitor at 25° C. for 30 minutes. The reaction was terminated by addition of 2 volumes of chloroform:methanol (1:1) and mixed by vortexing. Following a centrifugation step, 2000 rpm for 10 min. at room temperature, the aqueous phase containing the released […] was recovered and quantitated by liquid scintillation as a reflection of FAAH enzyme activity.

First: Cn1cnc(-c2ccc([C@H]3C[C@@H]3c3n[nH]c(=S)[nH]3)cc2)c1Sc1ccc(Cl)cn1 [Example 32B, 5-[(1S,2S)-2-(4-{5-[(5-chloropyridin-2-yl)thio]-1-methyl-1H-imidazol-4-yl}phenyl)cyclopropyl]-2,4-dihydro-3H-1,2,4-triazole-3-thione]
Second: Cn1cnc(-c2ccc([C@H]3C[C@@H]3c3n[nH]c(=O)[nH]3)cc2)c1Sc1ccc(Cl)cn1 [Example 33B, 5-[(1S,2S)-2-(4-{5-[(5-chloropyridin-2-yl)thio]-1-methyl-1H-imidazol-4-yl}phenyl)cyclopropyl]-2,4-dihydro-3H-1,2,4-triazol-3-one]
The IC50 of the first is 1.8-fold lower: 304 nM for the first, 545 nM for the second. The first is the more potent here.

First: CN(C)C(=O)[C@H]1C[C@@H]1c1ccc(-c2ncn(CCF)c2Sc2ccc(Cl)cn2)cc1 [Example 14B, 5-[(5-Chloropyridin-2-yl)thio]-4-(4-{(1S,2S)-2-[(dimethylamino)carbonyl]cyclopropyl}phenyl)-1-(2-fluoroethyl)-1H-imidazol-3-ium trifluoroacetate]
Second: CN(C)C(=O)C1CC1c1ccc(-c2ncn(C)c2Sc2ccc(Cl)cn2)cc1 (stereo not shown) [Example 1B, 2-(4-{5[(5-Chloropyridin-2yl-)thio]-1-methyl-1H-imidazol-4-yl}phenyl)-N,N-dimethylcyclopropanecarboxamide]
The IC50 of the first is 2.3-fold higher: 3.2 nM for the first, 1.4 nM for the second.

Compared with `CN(C)C(=O)C1CC1c1ccc(-c2nc(C3CC3)n(C)c2Sc2ccc(Cl)cn2)cc1` (stereo not shown) [Example 13B, 5-[(5-Chloropyridin-2-yl)thio]-2-cyclopropyl-4-(4-{2-[(dimethylamino)carbonyl]cyclopropyl}phenyl)-1-methyl-1H-imidazol-3-ium trifluoroacetate], `CN(C)C(=O)[C@H]1C[C@@H]1c1ccc(-c2nc[nH]c2Sc2ccc(Cl)cn2)cc1` [Example 20B, (1S,2S)-2-(4-{5-[(5-Chloropyridin-2-yl)thio]-1H-imidazol-4-yl}phenyl)-N,N-dimethylcyclopropanecarboxamide] is 13-fold higher in IC50: 48.3 nM for the first, 650 nM for the second.

Going from `Cn1cnc(-c2ccc([C@H]3C[C@@H]3c3n[nH]c(=O)o3)cc2)c1Sc1ccc(Cl)cn1` [Example 17B, 5-[(1S,2S)-2-(4-{5-[(5-Chloropyridin-2-yl)thio]-1-methyl-1H-imidazol-4-yl}phenyl)cyclopropyl]-1,3,4-oxadiazol-2(3H)-one] to `Cn1cnc(-c2ccc([C@H]3C[C@@H]3c3noc(=O)[nH]3)cc2)c1Sc1ccc(Cl)cn1` [Example 36B, 5-[(5-chloropyridin-2-yl)thio]-1-methyl-4-{4-[(1S,2S)-2-(5-oxo-4,5-dihydro-1,2,4-oxadiazol-3-yl)cyclopropyl]phenyl}-1H-imidazol-3-ium trifluoroacetate], the IC50 rises from 4.5 nM to 95.4 nM (21-fold).

Compared with `Cn1cnc(-c2ccc([C@H]3C[C@@H]3CO)cc2)c1Sc1ccc(Cl)cn1` [Example 23B, [(1S,2S)-2-(4-{5-[(5-Chloropyridin-2-yl)thio]-1-methyl-1H-imidazol-4-yl}phenyl)cyclopropyl]methanol], `COC[C@H]1C[C@@H]1c1ccc(-c2ncn(C)c2Sc2ccc(Cl)cn2)cc1` [Example 24B, 5-Chloro-2-[(4-{4-[(1S,2S)-2-(methoxymethyl)cyclopropyl]phenyl}-1-methyl-1H-imidazol-5-yl)thio]pyridine] is 2.5-fold lower in IC50: 88.4 nM for the first, 35.5 nM for the second. The second is the more potent here.

Compared with `Cn1cnc(-c2ccc([C@H]3C[C@@H]3c3n[nH]c(=O)n3C)cc2)c1Sc1ccc(Cl)cn1` [Example 34B, 5-[(1S,2S)-2-(4-{5-[(5-chloropyridin-2yl)thio]-1-methyl-1H-imidazol-4-yl}phenyl)cyclopropyl]-4-methyl-2,4-dihydro-3H-1,2,4-triazol-3-one], `Cn1cnc(-c2ccc([C@H]3C[C@@H]3c3nn[nH]n3)cc2)c1Sc1ccc(Cl)cn1` [Example 37B, 5-[(5-chloropyridin-2-yl)thio]-1-methyl-4-{4-[(1S,2S)-2-(2H-tetrazol-5-yl)cyclopropyl]phenyl}-1H-imidazol-3-ium trifluoroacetate] is 5.3-fold lower in IC50: 893 nM for the first, 167 nM for the second.

Going from `Cn1cnc(-c2ccc([C@H]3C[C@@H]3COCCF)cc2)c1Sc1ccc(Cl)cn1` [Example 25B, 5-Chloro-2-{[4-(4-{(1S,2S)-2-[(2-fluoroethoxy)methyl]cyclopropyl}phenyl)-1-methyl-1H-imidazol-5-yl]thio}pyridine] to `COC(=O)[C@H]1C[C@@H]1c1ccc(-c2ncn(C)c2Sc2ccc(Cl)cn2)cc1` [Example 21B, Methyl (1S,2S)-2-(4-{5-[(5-chloropyridin-2-yl)thio]-1-methyl-1H-imidazol-4-yl}phenyl)cyclopropanecarboxylate], the IC50 falls from 69.3 nM to 0.2 nM (350-fold).

Compared with `CN(C)C(=O)[C@H]1C[C@@H]1c1ccc(-c2ncn(C)c2Sc2ccc(Cl)cc2)cc1` [Example 9B], `Cn1cnc(-c2ccc([C@H]3C[C@@H]3C(C)(C)O)cc2)c1Sc1ccc(Cl)cn1` [Example 22B, 2-[(1S,2S)-2-(4-{5-[(5-Chloropyridin-2-yl)thio]-1-methyl-1H-imidazol-4-yl}phenyl)cyclopropyl]propan-2-ol] is 29-fold higher in IC50: 0.3 nM for the first, 8.7 nM for the second. The first is the more potent here.

First: Cc1nnc([C@H]2C[C@@H]2c2ccc(-c3ncn(C)c3Sc3ccc(Cl)cn3)cc2)o1 [Example 19B, 5-Chloro-2-[(1-methyl-4-{4-[(1S,2S)-2-(5-methyl-1,3,4-oxadiazol-2-yl)cyclopropyl]phenyl}-1H-imidazol-5-yl)thio]pyridine]
Second: COc1nnc([C@H]2C[C@@H]2c2ccc(-c3ncn(C)c3Sc3ccc(Cl)cn3)cc2)o1 [Example 18B, 5-Chloro-2-[(4-{4-[(1S,2S)-2-(5-methoxy-1,3,4-oxadiazol-2-yl)cyclopropyl]phenyl}-1-methyl-1H-imidazol-5-yl)thio]pyridine]
The IC50 of the first is 2.9-fold higher: 46 nM for the first, 15.6 nM for the second.

same assay, conditions: tables of the B series; read-out: hFAAH lysate IC50

Compared with `CNC(=O)[C@H]1C[C@@H]1c1ccc(-c2ncn(CCF)c2Sc2ccc(Cl)cn2)cc1` [Example 15B], `NC(=O)[C@H]1C[C@@H]1c1ccc(-c2ncn(CCF)c2Sc2ccc(Cl)cn2)cc1` [Example 16B] is 2.2-fold higher in IC50: 5.8 nM for the first, 12.7 nM for the second. The first is the more potent here.

`Cn1cnc(-c2ccc(C3CC3C(N)=O)cc2)c1Sc1ccc(Cl)cn1` (stereo not shown) [Example 4B] and `Cn1cnc(-c2ccc([C@H]3C[C@@H]3C(N)=O)cc2)c1Sc1ccc(Cl)cn1` [Example 7B] are within 1.5-fold of each other in IC50: 2.6 nM for the first, 3.3 nM for the second.

Compared with `COc1cnc(Sc2c(-c3ccc([C@H]4C[C@@H]4c4n[nH]c(=O)o4)cc3)ncn2C)nc1` [Example 40B], `CC(C)c1ccc(Sc2c(-c3ccc([C@H]4C[C@@H]4c4n[nH]c(=O)o4)cc3)ncn2C)cc1` [Example 43B] is 1.6-fold lower in IC50: 33 nM for the first, 20 nM for the second.

`CNC(=O)[C@H]1C[C@@H]1c1ccc(-c2ncn(C)c2Sc2ccc(Cl)cn2)cc1` [Example 6B] and `CNC(=O)C1CC1c1ccc(-c2ncn(C)c2Sc2ccc(Cl)cn2)cc1` (stereo not shown) [Example 3B] are within 1.5-fold of each other in IC50: 1.1 nM for the first, 1.4 nM for the second.

Going from `Cn1cnc(-c2ccc([C@H]3C[C@@H]3C(=O)NC(C)(C)C)cc2)c1Sc1ccc(Cl)cn1` [Example 8B] to `CC(C)NC(=O)C1CC1c1ccc(-c2ncn(C)c2Sc2ccc(Cl)cn2)cc1` (stereo not shown) [Example 2B], the IC50 falls from 196 nM to 6.3 nM (31-fold).
